Test results from the CheMixHub ionic liquid set.

Assay: xn = mol fraction of the nth substance listed

O=C(CO)[C@@H](O)[C@H](O)[C@@H](O)CO + CCCCCCCCCCCCCCCC[N+](C)(C)C.[Br-] + O
viscosity [mPa·s], 100 kPa
Details	298.15 K	308.15 K	318.15 K
x2 = 7.19e-06, x1 = 0.002005	0.946	0.782	0.65
x2 = 7.19e-06, x1 = 0.002298	0.954	0.788	0.655
x2 = 7.19e-06, x1 = 0.002748	0.965	0.797	0.662
x2 = 7.2e-06, x1 = 0.0007582	0.915	0.757	0.629
x2 = 7.2e-06, x1 = 0.001199	0.926	0.766	0.637
x2 = 7.2e-06, x1 = 0.001449	0.932	0.771	–
x2 = 1.438e-05, x1 = 0.00232	0.96	0.793	0.658
x2 = 1.438e-05, x1 = 0.002732	0.971	0.802	0.665
x2 = 1.439e-05, x1 = 0.00146	0.937	–	–
x2 = 1.439e-05, x1 = 0.001979	0.951	0.786	0.652
x2 = 1.44e-05, x1 = 0.0008896	0.922	0.763	0.633
x2 = 1.44e-05, x1 = 0.001296	0.933	0.771	0.64
x2 = 2.156e-05, x1 = 0.002717	0.975	0.805	0.667
x2 = 2.157e-05, x1 = 0.002351	0.965	0.797	0.66
x2 = 2.158e-05, x1 = 0.001965	0.954	0.789	0.653
x2 = 2.159e-05, x1 = 0.001383	0.938	0.776	0.642
x2 = 2.159e-05, x1 = 0.001661	0.946	0.782	0.647
x2 = 2.16e-05, x1 = 0.001025	0.928	0.768	0.636

O + CCCCCCCCCCCCCCCC[n+]1ccccc1.O=C([O-])C(O)c1ccccc1
101 kPa, x2 = 0
Details	electrical conductivity [S/m]
293.15 K	0.00012
298.15 K	0.00015
303.15 K	0.00016
308.15 K	0.00017
313.15 K	0.00019

O + CCCCCCCCCCCCCCCC[n+]1ccccc1.O=C([O-])C(O)c1ccccc1 + CC(C)C[C@H](N)C(=O)O
101 kPa, x2 = 0, x3 = 0
Details	electrical conductivity [S/m]
293.15 K	0.00012
298.15 K	0.00015
303.15 K	0.00016
308.15 K	0.00017
313.15 K	0.00019

O + CCCCCCCCCCCCCCCC[n+]1ccccc1.O=C([O-])C(O)c1ccccc1 + CC(C)[C@H](N)C(=O)O
101 kPa, x2 = 0, x3 = 0
Details	electrical conductivity [S/m]
293.15 K	0.00012
298.15 K	0.00015
303.15 K	0.00016
308.15 K	0.00017
313.15 K	0.00019

O + CCCCCCCCCCCCCCCC[n+]1ccccc1.O=C([O-])C(O)c1ccccc1 + C[C@H](N)C(=O)O
101 kPa, x2 = 0, x3 = 0
Details	electrical conductivity [S/m]
293.15 K	0.00012
298.15 K	0.00015
303.15 K	0.00016
308.15 K	0.00017
313.15 K	0.00019

O + CCCCCCCCCCCCCCCC[n+]1ccccc1.O=C([O-])C(O)c1ccccc1 + NCC(=O)NCC(=O)O
101 kPa, x2 = 0, x3 = 0
Details	electrical conductivity [S/m]
293.15 K	0.00012
298.15 K	0.00015
303.15 K	0.00016
308.15 K	0.00017
313.15 K	0.00019

O + CCCCCCCCCCCCCCCC[n+]1ccccc1.O=C([O-])C(O)c1ccccc1 + NCC(=O)O
101 kPa, x2 = 0, x3 = 0
Details	electrical conductivity [S/m]
293.15 K	0.00012
298.15 K	0.00015
303.15 K	0.00016
308.15 K	0.00017
313.15 K	0.00019

O + CCCCCCCCCCCCCCCC[n+]1ccccc1.O=C([O-])c1ccccc1O
101 kPa, x2 = 0
Details	electrical conductivity [S/m]
293.15 K	0.000135
298.15 K	0.000158
303.15 K	0.000178
308.15 K	0.000197
313.15 K	0.000246

O + CCCCCCCCCCCCCCCC[n+]1ccccc1.[Cl-]
Details	electrical conductivity [S/m]
308.15 K, 101 kPa, x2 = 0	6.7e-05

C[C@H](N)C(=O)O + CCCCCCCCCCCCCCCC[n+]1ccccc1.[Cl-] + O
308.15 K, 101 kPa
Details	electrical conductivity [S/m]
x1 = 2.018e-05, x2 = 0	0.00076
x1 = 2.252e-05, x2 = 0	5.6e-05
x1 = 0.0009272, x2 = 0	7.5e-05
x1 = 0.001838, x2 = 0	0.000251

CCC[N+]1(C)CCCC1.O=S(=O)([N-]S(=O)(=O)C(F)(F)F)C(F)(F)F + CCCCCCCCCCCCCC[P+](CCCCCC)(CCCCCC)CCCCCC.O=S(=O)([N-]S(=O)(=O)C(F)(F)F)C(F)(F)F
313.15 K, 101 kPa, x2 = 0.75
Details	electrical conductivity [S/m]	viscosity [mPa·s]
–	0.0308	135

O + CCCCCCCCCCCCCC[n+]1ccccc1.O=C([O-])C(O)c1ccccc1
101 kPa, x2 = 0
Details	electrical conductivity [S/m]
293.15 K	0.00012
298.15 K	0.00015
303.15 K	0.00016
308.15 K	0.00017
313.15 K	0.00019

O + CCCCCCCCCCCCCC[n+]1ccccc1.O=C([O-])C(O)c1ccccc1 + CC(C)C[C@H](N)C(=O)O
101 kPa, x2 = 0, x3 = 0
Details	electrical conductivity [S/m]
293.15 K	0.00012
298.15 K	0.00015
303.15 K	0.00016
308.15 K	0.00017
313.15 K	0.00019

O + CCCCCCCCCCCCCC[n+]1ccccc1.O=C([O-])C(O)c1ccccc1 + CC(C)[C@H](N)C(=O)O
101 kPa, x2 = 0, x3 = 0
Details	electrical conductivity [S/m]
293.15 K	0.00012
298.15 K	0.00015
303.15 K	0.00016
308.15 K	0.00017
313.15 K	0.00019

O + CCCCCCCCCCCCCC[n+]1ccccc1.O=C([O-])C(O)c1ccccc1 + C[C@H](N)C(=O)O
101 kPa, x2 = 0, x3 = 0
Details	electrical conductivity [S/m]
293.15 K	0.00012
298.15 K	0.00015
303.15 K	0.00016
308.15 K	0.00017
313.15 K	0.00019

O + CCCCCCCCCCCCCC[n+]1ccccc1.O=C([O-])C(O)c1ccccc1 + NCC(=O)NCC(=O)O
101 kPa, x2 = 0, x3 = 0
Details	electrical conductivity [S/m]
293.15 K	0.00012
298.15 K	0.00015
303.15 K	0.00016
308.15 K	0.00017
313.15 K	0.00019

O + CCCCCCCCCCCCCC[n+]1ccccc1.O=C([O-])C(O)c1ccccc1 + NCC(=O)O
101 kPa, x2 = 0, x3 = 0
Details	electrical conductivity [S/m]
293.15 K	0.00012
298.15 K	0.00015
303.15 K	0.00016
308.15 K	0.00017
313.15 K	0.00019

O + CCCCCCCCCCCCCCn1cc[n+](C)c1.[Br-] + CC[N+](CC)(CC)CC.[Br-]
101 kPa, frequency 0.001 MHz, x2 = 0, x3 = 0
Details	electrical conductivity [S/m]
298.15 K	0.00046
308.15 K	0.00115
318.15 K	0.00157

O + CCCCCCCCCCCCOS(=O)(=O)[O-].[Na+] + CCCCCCCCCCCCCCCC[N+](C)(C)C.[Br-]
Details	electrical conductivity [S/m]
298.15 K, 101 kPa, frequency 0.001 MHz, x2 = 0, x3 = 0	0.000321

NCC(=O)NCC(=O)O + CCCCCCCCCCCC[N+](C)(C)C.[Br-] + O
100 kPa
Details	electrical conductivity [S/m]
293.15 K, x1 = 0.0001801, x2 = 0.0003553	0.093
293.15 K, x1 = 0.0001801, x2 = 0.0003787	0.095
293.15 K, x1 = 0.0001801, x2 = 0.0004256	0.099
293.15 K, x1 = 0.0001802, x2 = 2.706e-05	0.0098
298.15 K, x1 = 9.009e-05, x2 = 2.704e-05	0.0082
298.15 K, x1 = 0.0001801, x2 = 0.0003553	0.096
298.15 K, x1 = 0.0001801, x2 = 0.0003787	0.097
298.15 K, x1 = 0.0001801, x2 = 0.0004021	0.099
303.15 K, x1 = 1.802e-05, x2 = 2.703e-05	0.0078
303.15 K, x1 = 9.009e-05, x2 = 2.704e-05	0.0097
308.15 K, x1 = 1.802e-05, x2 = 2.703e-05	0.0082
308.15 K, x1 = 9.005e-05, x2 = 0.0004487	0.098
313.15 K, x1 = 1.801e-05, x2 = 0.0005368	0.093
313.15 K, x1 = 1.802e-05, x2 = 2.703e-05	0.0087
313.15 K, x1 = 9.006e-05, x2 = 0.0004019	0.098
313.15 K, x1 = 0.0001801, x2 = 0.0003318	0.099
